Results on 3 compounds are retold here after patent publication US8372879B2, “4-(heterocycloalkyl) benzene-1,3-diol compounds as tyrosinase inhibitors, process for the preparation thereof and use thereof in human medicine and also in cosmetics” (Galderma Research & Development, priority 2008, dated 2013).

SMILES strings stand for the structures.

One data set addresses T1, tyrosinase (Mus musculus, UniProt P11344).
T1 construct: the supernatant obtained constitutes the cell lysate used as tyrosinase source in the enzymatic assay; endogenous in cells; host or cells: B16F1 murine melanoma cells, stimulated with alpha-MSH; detergent/ultrasound lysate supernatant
T1 sequence (P11344 19-533): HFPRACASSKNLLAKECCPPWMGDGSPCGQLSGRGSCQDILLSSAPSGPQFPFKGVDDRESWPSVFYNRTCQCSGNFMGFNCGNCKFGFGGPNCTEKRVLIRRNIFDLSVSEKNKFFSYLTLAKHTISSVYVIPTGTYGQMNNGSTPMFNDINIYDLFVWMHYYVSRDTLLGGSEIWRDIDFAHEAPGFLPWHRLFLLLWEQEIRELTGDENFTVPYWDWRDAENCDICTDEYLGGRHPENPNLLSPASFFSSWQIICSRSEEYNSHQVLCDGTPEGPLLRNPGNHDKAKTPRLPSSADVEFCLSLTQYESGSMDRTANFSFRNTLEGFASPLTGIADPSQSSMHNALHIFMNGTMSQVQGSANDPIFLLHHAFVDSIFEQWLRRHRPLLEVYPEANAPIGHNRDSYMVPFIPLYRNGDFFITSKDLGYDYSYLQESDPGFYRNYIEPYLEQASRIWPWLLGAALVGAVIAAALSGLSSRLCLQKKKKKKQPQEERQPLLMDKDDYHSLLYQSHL
Description: Tyrosinase activity inhibition assay (B16F1 cell lysate, L-tyrosine/MBTH, 520 nm). The format is biochemical, murine. The conditions noted are these: lysate of B16F1 cells, 6 hours of incubation at 37° C.; read-out: Tyrosine hydroxylase/Dopa oxidase IC50. The procedure:
The activity of the inhibitors is measured using a lysate of B16F1 cells (murine melanoma line). In the presence of the L-tyrosine substrate, the tyrosinase present in these cells catalyses the hydroxylation of L-tyrosine to give L-DOPA and then the oxidation of the L-DOPA to give dopaquinone. In the presence of MBTH (3-methyl-2-benzothiazolinone hydrazone), the dopaquinone is trapped so as to form a pink complex which absorbs at 520 nm.
The B16F1 cells are cultured in DMEM medium+10% foetal calf serum+10^−9M α-MSH for 4 days at 37° C. under 7% CO2. They are treated with trypsin, washed in PBS, counted and pelleted. The pellet is taken up at 10^7 cells/ml in lysis buffer (10 mM sodium phosphate, pH 6.8-1% Igepal) and the suspension is treated with ultrasound for 10 seconds. After centrifugation for 30 minutes at 4000 rpm, the supernatant obtained constitutes the cell lysate used as tyrosinase source in the enzymatic assay.
The assays are carried out in duplicate in 384-well plates in a total volume of 50 μl. […]
The plate is incubated at 37° C. and a spectro-photometric reading is carried out at 520 nm after 6 hours of incubation. In order to avoid any possible absorption of the products, the system uses corrected absorbance (absorbance at time 6 h—absorbance at time zero). […]

Data set [1] deals with MNT1 human melanoma cells. Kind of data set: Melanogenesis inhibition assay (14C-thiouracil incorporation standardized through 3H-leucine). The format is cell-based. The conditions noted are these: MNT-1, incubation for 24 h, 14C incorporation standardized through 3H incorporation. Here is the method:
(§1) The inhibition of melanogenesis is measured in MNT1 human melanoma cells according to a protocol adapted from Reigner et al., Cell Mol Biol (1999) 45: 969-980. The assay is based on the concomitant incorporation of 2 radiolabelled tracers: ^14C-thiouracil is incorporated into the neosynthesized melanin and reflects melanogenesis, whereas ^3H-leucine is incorporated into the proteins and reflects cell viability and, consequently, the toxicity of the compounds tested.
(§2) The MNT1 cells are seeded into 96-well plates in the presence of the test compounds and of the radio-isotopes. After incubation for 24 h at 37° C., the cells are washed and the amount of the 2 radioisotopes is measured. The test compounds are evaluated in terms of dose-response so as to calculate an IC50 for inhibition of melanogenesis on the basis of the ^14C incorporation which is standardized through the ^3H incorporation. An IC50 for cell toxicity is also calculated on the basis of the ^3H incorporation.

A short description of data set [2]: Cell toxicity (3H-leucine incorporation) in melanogenesis assay. The format is cell-based. As to conditions: human, MNT1 human melanoma cells, incubation for 24 h. Here is the method: as §1, §2

In the case of `Oc1ccc(C2CCOCC2)c(O)c1` [Compound 1, 4-(tetrahydropyran-4-yl)benzene-1,3-diol], the IC50 at tyrosinase worked out at 100 nM; in data set [1] it was 1000 nM. The compound also gave an IC50 at 24 h in data set [2] of over 999000 nM.

Consider `Oc1ccc(C2CCSCC2)c(O)c1` [Compound 2, 4-(tetrahydrothiopyran-4-yl)benzene-1,3-diol], for which the IC50 on tyrosinase turned out to be 400 nM.

`CCCCc1ccc(O)cc1O` [4-butylresorcinol (Rucinol), 4-butylresorcinol, reference compound]: the IC50 in data set [1] stood at 15000 nM. The IC50 at 24 h in data set [2] stood at 55000 nM.
